Results as given in patent US8632815B2 (Laila Pharmaceutical Pvt., Ltd., priority 2008, dated 2014).
Values belong to the compound of their own block, whether it stands above or below them.

Tests used:
[1] = tested on: selenite-induced cataract in Wistar rat pups; experiment: In vivo anti-cataract efficacy, selenite-induced cataract
Method: Animals were grouped into Group I (control), Group II (sodium selenite) and Group III (treatment).
Two hours later Sodium Selenite (25 μM/kg·bw of 5 ml/kg·bw) was injected subcutaneously to both group II and III animals, thereafter 5 μl of LP002-09 was instilled topically to the eyes of group III animals only.
All animals were observed individually through out the observation period for any clinical signs and mortality. On the examination day i.e. when the pups first opened their eyes, the development of cataract was observed by the presence or absence of opacity by dilating the pupil with 0.8% tropicamide.
The cataract was scored on a scale of 0 to 4 according to procedure described by Muranov et al., (2004). Grade 0 was a normal clear lens, Grade 1 was a subcapsular opacity; Grade 2 was nuclear cataract, Grade 3 was strong nuclear cataract; Grade 4 was dense opacity involving entire lens and the results have been presented in below table 1

[2] = Particle size distribution, Malvern particle size analyzer; format: physicochemical; details: laser diffraction
Method: The study was conducted using Malvern particle size analyzer. The map of scattering intensity versus angle is the primary source of information used to calculate the particle size. The scattering of particles is accurately predicted by the Mie scattering model allowing accurate sizing across the widest possible dynamic range. During the laser diffraction measurement, particles are passed through a focused laser beam. These particles scatter light at an angle that is inversely proportional to their size. The angular intensity of the scattered light is then measured by a series of photosensitive detectors. The advantage of this study is that there is no sample preparation involved.
This is a clear indication that the process of nanoemulsification followed has effectively transformed the large sized particles to nanosized coated curcuminoid particles. Additional peaks can be observed which is contributed by the high molecular weight excipients used to prepare the formulation.

[3] = of 20 eyes, rat pups, sodium selenite s.c.

SMILES: O=[Se](O)O [Sodium Selenite]
Total Percentage of cataract ([1]; 20 eyes, rat pups): 100% | Grade (Mean ± S.D.) ([1]; cataract scale 0 to 4, LP002-09 P < 0.0001 vs. Sodium Selenite treated): 3.6 ± 0.68 | Dense opacity involving entire lens, Score 4 (number of eyes) [1, 3]: 14 | No Opacity, Score 0 (number of eyes) [1, 3]: 0 | Nuclear cataract, Score 2 (number of eyes) [1, 3]: 2 | Strong Nuclear cataract, Score 3 (number of eyes) [1, 3]: 4 | Subcapsular opacity, Score 1 (number of eyes) [1, 3]: 0 | eyes with dense opacity type cataract ([1]; percent of eyes): 70% | eyes with nuclear cataract ([1]; percent of eyes): 10% | eyes with strong nuclear cataract ([1]; percent of eyes): 20%

particle size [2]: 373 nm | particle size ([2]; listed as curcumin): 374 nm
SMILES: COc1cc(/C=C/C(=O)CC(=O)/C=C/c2ccc(O)c(OC)c2)ccc1O [unformulated curcumin 98%, Curcumin]
